Test results published in patent publication US20250020635A1, “ASSAY METHODS AND USES THEREOF FOR SCREENING ALZHEIMER'S DISEASE TREATMENT COMPOUNDS” (priority 2023, published 2025).
Like-named read-outs stand apart in the source and are kept apart here. Values belong to the molecule of their own block, whether it stands above or below them.

Tests used:
PLCγ2-HiBit = target: T1, PLCγ2-HiBit (Homo sapiens, UniProt P16885); assay: Cellular thermal shift assay (SplitLuc CETSA), PLCγ2-HiBit in HMC3 cells; format: cell-based; details: for PLCγ2-HiBit %, percent luminescence at highest dose compared to control (DMSO): 100 μM; for PLCy2-HiBit % @100: Table 1
T1 construct: expressed in transfected cells; host or cells: HMC3 cells
T1 sequence (P16885 1-1265): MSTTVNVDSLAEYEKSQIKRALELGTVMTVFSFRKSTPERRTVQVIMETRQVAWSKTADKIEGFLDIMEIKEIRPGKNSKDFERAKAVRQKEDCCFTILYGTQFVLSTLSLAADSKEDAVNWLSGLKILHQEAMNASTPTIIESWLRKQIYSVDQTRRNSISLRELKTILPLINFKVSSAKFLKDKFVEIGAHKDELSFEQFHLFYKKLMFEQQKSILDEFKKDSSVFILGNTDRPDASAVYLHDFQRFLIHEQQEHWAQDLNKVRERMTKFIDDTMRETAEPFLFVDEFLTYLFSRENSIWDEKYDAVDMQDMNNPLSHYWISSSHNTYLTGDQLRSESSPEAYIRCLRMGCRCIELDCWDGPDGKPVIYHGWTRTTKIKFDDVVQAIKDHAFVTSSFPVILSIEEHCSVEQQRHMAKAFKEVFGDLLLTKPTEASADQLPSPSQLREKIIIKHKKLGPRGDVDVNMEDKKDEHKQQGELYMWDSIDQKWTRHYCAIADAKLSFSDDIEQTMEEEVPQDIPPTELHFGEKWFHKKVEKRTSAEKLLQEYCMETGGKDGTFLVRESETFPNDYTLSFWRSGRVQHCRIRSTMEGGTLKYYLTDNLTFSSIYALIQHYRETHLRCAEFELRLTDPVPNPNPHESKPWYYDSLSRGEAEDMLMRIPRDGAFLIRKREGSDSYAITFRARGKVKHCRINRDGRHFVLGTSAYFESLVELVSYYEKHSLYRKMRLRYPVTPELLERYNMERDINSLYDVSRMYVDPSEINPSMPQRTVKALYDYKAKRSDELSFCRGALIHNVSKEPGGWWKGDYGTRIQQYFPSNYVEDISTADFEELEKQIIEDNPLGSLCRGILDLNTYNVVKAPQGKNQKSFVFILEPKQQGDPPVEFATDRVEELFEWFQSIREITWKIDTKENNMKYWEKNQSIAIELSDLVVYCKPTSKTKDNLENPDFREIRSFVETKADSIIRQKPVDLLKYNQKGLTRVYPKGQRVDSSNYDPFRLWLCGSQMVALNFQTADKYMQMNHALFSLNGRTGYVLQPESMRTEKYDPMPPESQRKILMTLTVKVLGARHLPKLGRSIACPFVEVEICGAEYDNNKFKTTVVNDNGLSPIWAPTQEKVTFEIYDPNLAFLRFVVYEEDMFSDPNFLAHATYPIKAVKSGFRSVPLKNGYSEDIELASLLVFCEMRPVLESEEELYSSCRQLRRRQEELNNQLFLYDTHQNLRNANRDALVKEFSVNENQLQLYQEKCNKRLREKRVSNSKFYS
From the text: These compounds have been evaluated using a wide variety of assay classes namely target engagement utilizing cellular thermal shift assay (CETSA),^34 affinity selection mass spectrometry (ASMS),^35 biochemical activity employing the fluorogenic probe XY-69,^36 and cellular activity testing for phagocytosis. Cellular Thermal Shift Assays (CETSA) assess cellular target engagement by quantifying changes in protein thermal stability upon ligand binding to endogenous proteins in intact cells.^34 For SAR studies, a split Nano Luciferase (SplitLuc CETSA) version of the assay was utilized to provide sufficient throughput.^37,38 HMC3 cells were stably transfected with PLCγ2-HiBit to enable protein expression in a physiologically relevant cellular context. The thermal stability of this HiBit-labeled protein in intact cells was measured in the following two formats. In the initial screen, using 96-well plates, cells were treated with FBS analogs at a single concentration (100 μM) at 37° C. for 60 min and then exposed to a 3-minute isothermal heating step at 45.9° C. (experimentally determined Tm of PLCγ2-HiBit). Luminescence detection was then conducted with the Nano-Glo HiBit Lytic detection kit (Promega, Cat. N3040).^38 Compound treatment was performed in triplicate, and raw signals were normalized to the mean of the controls (in the same plate) as % of control. When the difference in compound-treated cells >control mean+3SD, the compound was considered positive and selected for further testing with dose-response CETSA. In the dose response CETSA, cells were treated with decreasing concentrations from 100 μM with 1:3 serial dilutions to generate an 8-point curve. An AC50 was calculated with the % of control data using a four-parameter logistic curve regression model, and the percent luminescence remaining at the highest concentration is also reported for the compounds when the difference from the DMSO control is greater than 3× the standard deviation (SD). Otherwise, an AC50 was not calculated.

HMC3 cells [1] = assay: Microglial phagocytosis/cell health high-content assay, HMC3 cells; format: cell-based; details: 60 μM, 48 hrs, compared to control
Description: (§1) The assay introduced here is a simplified cellular imaging assay without any fixation and washing steps, while producing multiparameter measurements with high capacity using a 384-well plate format. The assay procedures include plating cells on day 1, incubating cell plates overnight before treating cells on day 2, adding pHrodo™-myelin/membrane debris to cell plates on day 3, and 20 hr later, staining cell nuclei with Hoechst-33342 for 30 min before performing high-content imaging on day 4. Three selected parameters are measured from cells: 1) mean total fluorescence intensity per cell of pHrodo™-myelin/membrane debris in phagocytosis vesicles to quantify phagocytosis; 2) cell counts per well to quantify treatment effects on proliferation and cell death; and 3) average nuclear intensity to quantify treatment-induced nuclear changes such as in apoptosis. The assay has been used on HMC3 cells (an immortalized human microglial cell line), BV2 cells (an immortalized mouse microglial cell line), and primary microglia isolated from mouse brains. For initial assay attempts, we recommend using HMC3 cells available from the ATCC.
(§2) All collected raw data are normalized to the untreated control with following formula: % of control=100×(X−Min)/(Max−Min). Factors in the formula are: X is raw data from a treated well, Max is an average measurement from pHrodo™-myelin seeded but untreated wells, and Min is an average measurement from no pHrodo™-myelin untreated wells. Normalized data are used for curve fitting that is done with the variable slope (four parameters) using the Prism software.
(§3) To ensure that the measurements reflect the steady state of compound treatment effects and cell health, the assay was set with a total compound treatment time of 48 hr, including pHrodo™-myelin/membrane debris seeding performed 20-24 hr after compound addition. […] Among many available quantitative measurements from the image analysis, we selected three parameters for the assay:
(§4) 1) The mean total intensity of phagocytosis vesicles/cell—to measure phagocytosis. There are multiple parameters generated from the image analysis, including phagocytosis vesicle area, number, and various fluorescence intensity measurements. Comparing these parameters, the total fluorescence intensity of vesicles/cell is the most sensitive one and was chosen for quantifying phagocytosis.
(§5) 2) The total cell counts—to measure overall cell viability, which is affected by proliferation and cell death. We chose to take 4 images/well (with the 10× objective lens) that cover about 50% of the total area of a well in a 384-well plate to represent cell count of the well.
(§6) 3) The average nuclear intensity—to measure drug-induced apoptosis, with high signal indicating nuclear condescension (a sign of early apoptosis) and low signal indicating DNA degradation (a sign of later apoptosis, when activated caspases digest DNA).
(§7) A phenotypic high-content imaging assay with simultaneous measurements of phagocytosis, cell number, and nuclear intensity was used to assess both cellular pharmacology and cell health. Model cell lines BV2 (immortalized mouse microglia, a gift from Dr. Michelle Block's laboratory at IUSM) and HMC3 (immortalized human microglia, obtained from ATCC, CRL-3304) were used to provide adequate throughput. Cells were cultured in DMEM GlutaMax media (ThermoFisher) containing 10% FBS and Pen-Strep in a 37° C. 5% CO2 incubator, plated in Corning Falcon 384 well Optilux Black and clear bottom plates: 400 cells/45 μl/well (BV2 cells), 600 cells/45 μl/well (HMC3 cells) and 2000 cell/45 μl/well (primary cells), and treated with 10× serially diluted compounds (60 μM-3 nM) for 48 hrs at 37° C. […]

BV2 cells = assay: Microglial phagocytosis/cell health high-content assay, BV2 cells; format: cell-based; details: 60 μM, 48 hrs, compared to control
Description: as §1, §2, §3, §4, §5, §6, §7

MDCK = MDCK permeability; format: in vitro ADME; details: estimate of intestinal absorption
Description: (§8) Physicochemical and ADME properties were determined using the following assays: microsomal stability intrinsic clearance (Clint) in mouse liver microsomal solution, MDCK permeability (Papp), protein binding (fu) in mouse plasma, and kinetic solubility in pH 7.4 phosphate buffer (Table 7).

[2] = Protein binding in mouse plasma; format: in vitro ADME
Description: as §8

[3] = Kinetic solubility in pH 7.4 phosphate buffer; format: physicochemical
Description: as §8

HMC3 cells [4] = assay: Microglial phagocytosis/cell health high-content assay, HMC3 cells; format: cell-based; details: 24-hr treatment
His-PLCγ2 protein = target: T2, His-PLCγ2 protein (Homo sapiens, UniProt P16885); assay: Affinity selection mass spectrometry (ASMS); format: binding; details: dose range 100-0.05 μM, PLCγ2 400 nM
T2 sequence (P16885 1-1265): T1 sequence (P16885 1-1265)
Description: Using a dose range of 100-0.05 μM in 384 well low-volume polypropylene microtiter plates, a solution of PLCγ2 (final concentration 400 nM) was transferred to biochip arrays functionalized with a Tris-Ni-NTA-presenting self-assembled monolayer to immobilize the His-tagged protein. The arrays were incubated for 90 min in a humidified chamber to prevent evaporation and allow for specific immobilization of the His-PLCγ2 protein, along with any bound small molecules. The arrays were purified by a rapid <3 second gentle wash step with deionized ultra-filtered water and dried with compressed air. ASMS was performed using the reflector positive mode on an Aβ Sciex TOF-TOF 5800 System (Aβ Sciex, Framingham, MA).

HiBit only = assay: Cellular thermal shift assay (CETSA), HiBit only control; format: cell-based, human
[5] = Microsomal stability intrinsic clearance; format: in vitro ADME; details: mouse liver microsomes
Description: as §8

Compound: Cc1cc(C)c(S(=O)(=O)Nc2cccc(C#N)c2)c(C)c1 [Compound 3]
PLCγ2-HiBit %, percent luminescence at highest dose compared to control (DMSO) (PLCγ2-HiBit): 96%
PLCy2-HiBit % @100 (PLCγ2-HiBit): 96%
Ave. % Cell Count @ 60 uM HMC3 cells (HMC3 cells [1]): 79%
Ave. % Phagocytosis @ 60 uM HMC3 cells (HMC3 cells [1]): 111%
Ave. % Cell Count @ 60 uM BV2 cells (BV2 cells): 85%
Ave. % Phagocytosis @ 60 uM BV2 cells (BV2 cells): 113%
Papp, MDCK permeability (MDCK): 69.8 ×10−^6 cm/s
fu, fraction unbound [2]: 0.0003
Kinetic solubility [3]: 81 to 100 µM

Compound: C=C1[C@@H](C)[C@H]2[C@H](Cc3ccccc3)NC(=O)[C@]23[C@H](OC(C)=O)/C=C/[C@@](C)(O)C(=O)[C@@H](C)C/C=C/[C@H]3[C@@H]1O [Cytochalasin D]
IC50 (HMC3 cells [4]; read-out: cell count (inhibition of cell proliferation) IC50): 367 nM
EC50 (HMC3 cells [4]; read-out: increase of nuclear intensity EC50): 488 nM
IC50 (HMC3 cells [4]; read-out: inhibition of phagocytosis IC50): 138 nM

target engagement, signal against background (His-PLCγ2 protein): clear separation from background signal
Compound: Nc1ncnc2c1ncn2[C@@H]1O[C@H](COP(=O)(O)OP(=O)(O)OP(=O)(O)O)[C@@H](O)[C@H]1O [ATP]

Compound: O=S(=O)(Nc1cccc(C(F)(F)F)c1)c1ccccc1 [Compound 4]
PLCγ2-HiBit %, percent luminescence at highest dose compared to control (DMSO) (PLCγ2-HiBit): 65%
PLCy2-HiBit % @100 (PLCγ2-HiBit): 65%
HiBit only %, percent luminescence at highest dose with HiBit only compared to control (DMSO) (HiBit only; 100 μM): 82%
HiBit only % @100 μM (HiBit only; Table 1, @100 μM): 82%
Ave. % Cell Count @ 60 uM HMC3 cells (HMC3 cells [1]): 84%
Ave. % Phagocytosis @ 60 uM HMC3 cells (HMC3 cells [1]): 89%
Ave. % Cell Count @ 60 uM BV2 cells (BV2 cells): 95%
Ave. % Phagocytosis @ 60 uM BV2 cells (BV2 cells): 106%
Clint, intrinsic clearance [5]: 607.66 µL/min/mg
Papp, MDCK permeability (MDCK): 79.7 ×10−^6 cm/s
Kinetic solubility [3]: >100 µM
